Patent publication US20230086702A1, “SUBSTITUTED 2-AMINO-PYRAZOLYL-[1,2,4]TRIAZOLO[1,5A]PYRIDINE DERIVATIVES AND USE THEREOF” (The Johns Hopkins University, priority 2019, published 2023)
pIC50: −log10 of the molar value.

Experiments:
DLK = target: T1, DLK (Homo sapiens, UniProt Q12852); assay: DLK biochemical assay (TR-FRET, MKK7 phosphorylation); settings: DLK catalytic domain, MKK7 substrate, 60 μM ATP
T1 construct: 10 nM DLK, catalytic domain, Carna Biosiences; purchased Carna Biosciences ('Carna Biosiences' [sic])
T1 sequence (Q12852 125-366 limits assumed): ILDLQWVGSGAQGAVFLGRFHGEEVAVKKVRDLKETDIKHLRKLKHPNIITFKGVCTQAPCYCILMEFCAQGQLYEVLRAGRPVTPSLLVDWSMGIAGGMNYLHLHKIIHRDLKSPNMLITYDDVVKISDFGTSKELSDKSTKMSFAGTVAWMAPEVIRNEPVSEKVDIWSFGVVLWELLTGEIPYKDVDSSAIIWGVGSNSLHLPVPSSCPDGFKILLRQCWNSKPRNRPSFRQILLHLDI
How it was run: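 TR-FRET read-out (ratio of 665 nm acceptor to Eu donor channel) tracks MKK7 T275/S277 phosphorylation by DLK, using Eu-labelled anti-phospho-MKK7 and XL665-labelled anti-His on His-MKK7. Reactions were stopped and detected in pH 7.5 Tris buffer containing 100 mM EDTA, 100 mM NaCl, 200 mM KF and 0.01% Tween 20.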

LZK = target: T2, LZK (Homo sapiens, UniProt O43283); assay: LZK biochemical assay (TR-FRET, MKK7 phosphorylation); settings: LZK catalytic domain, MKK7 substrate, 15 μM ATP
T2 construct: 10 nM LZK, catalytic domain, Carna Biosiences in assay buffer; purchased Carna Biosciences ('Carna Biosiences' [sic])
T2 sequence (O43283 168-409 limits assumed): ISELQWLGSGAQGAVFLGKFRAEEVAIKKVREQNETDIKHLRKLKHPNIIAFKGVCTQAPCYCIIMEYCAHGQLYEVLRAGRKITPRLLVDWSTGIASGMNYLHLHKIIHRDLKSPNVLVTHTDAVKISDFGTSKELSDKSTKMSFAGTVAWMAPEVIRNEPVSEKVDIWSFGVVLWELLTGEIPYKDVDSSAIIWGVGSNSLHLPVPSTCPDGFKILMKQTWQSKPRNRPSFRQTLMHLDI

| SMILES | pIC50 (DLK) | pIC50 (LZK) |
| --- | --- | --- |
| CCC(c1ccc(C(F)F)nc1)n1cc(-c2cc(C(=O)N[C@@H](C)CC)n3nc(N)nc3c2)cn1 (mixture of isomers) [Example I-92, 2-Amino-N-[(2S)-butan-2-yl]-7-(1-{1-[6-(difluoromethyl)pyridin-3-yl]propyl}-1H-pyrazol-4-yl)[1,2,4]triazolo[1,5-a]pyridine-5-carboxamide] | 8.70 | 8.41 |
| CCC(c1ccc(OC(F)(F)F)nc1)n1cc(-c2cc(C(=O)N[C@@H](C)CO)c3nc(N)nn3c2)cn1 (single isomer, unassigned) [Example I-159] | 8.17 | 7.52 |
| CC[C@H](C)NC(=O)c1cc(-c2cnn([C@@H](CC)c3ccc(C(F)F)nc3)c2)cc2nc(N)nn12 (single isomer, unassigned) [Example I-94] | 9.00 | 8.72 |
| CC[C@@H](NC(=O)c1cc(-c2cnn(Cc3ccccc3)c2)cn2nc(N)nc12)C(F)(F)F (single isomer, unassigned) [Example I-134] | 6.64 | 6.01 |
| CCC(c1ccc(F)cn1)n1cc(-c2cc(C(=O)N[C@@H](C)CC)c3nc(N)nn3c2)cn1 (mixture of isomers) [Example I-55, 2-Amino-N-[(2S)-butan-2-yl]-6-{1-[1-(5-fluoropyridin-2-yl)propyl]-1H-pyrazol-4-yl}[1,2,4]triazolo[1,5-a]pyridine-8-carboxamide] | 8.17 | 7.31 |
| CC[C@H](C)NC(=O)c1cc(-c2cnn(C(c3ccc(C(F)(F)F)nc3)C(C)C)c2)cc2nc(N)nn12 (single isomer, unassigned) [Example I-105] | 7.89 | 7.85 |
| CC[C@H](C)NC(=O)c1cc(-c2cnn(C(c3ccccc3)C3(C)CC3)c2)cn2nc(N)nc12 (single isomer, unassigned) [Example I-30] | 6.85 | 6.51 |
| CC[C@H](C)NC(=O)c1cc(-c2cnn(C(c3ccc(C(F)(F)F)nc3)C3CC3)c2)cc2nc(N)nn12 (mixture of isomers) [Example I-107, 2-Amino-N-[(2S)-butan-2-yl]-7-(1-{cyclopropyl[6-(trifluoromethyl)pyridin-3-yl]methyl}-1H-pyrazol-4-yl)[1,2,4]triazolo[1,5-a]pyridine-5-carboxamide] | 8.77 | 8.46 |
| CC[C@H](C)NC(=O)c1cc(-c2cnn(C(c3ccc(OCC(F)(F)F)nc3)C3CC3)c2)cc2nc(N)nn12 (single isomer, unassigned) [Example I-121] | 8.72 | 7.52 |
| CC[C@H](C)NC(=O)c1cc(-c2cnn(C(c3ccc(OCC(F)(F)F)nc3)C(C)C)c2)cn2nc(N)nc12 (mixture of isomers) [Example I-88, 2-Amino-N-[(2S)-butan-2-yl]-6-(1-{2-methyl-1-[6-(2,2,2-trifluoroethoxy)pyridin-3-yl]propyl}-1H-pyrazol-4-yl)[1,2,4]triazolo[1,5-a]pyridine-8-carboxamide] | 8.12 | 6.92 |
| CC[C@H](C)NC(=O)c1cc(-c2cnn([C@H](c3ccc(F)cc3)C(C)C)c2)cn2nc(N)nc12 (single isomer, unassigned) [Example I-45] | 8.89 | 7.49 |
| CCC(c1ccc(Cl)s1)n1cc(-c2cc(C(=O)N[C@@H](C)CC)c3nc(N)nn3c2)cn1 (mixture of isomers) [Example I-129, 2-Amino-N-[(2S)-butan-2-yl]-6-{1-[1-(5-chloro-2-thienyl)propyl]-1H-pyrazol-4-yl}[1,2,4]triazolo[1,5-a]pyridine-8-carboxamide] | 8.47 | 7.41 |
| CCC(c1ccc(C(F)(F)F)nc1)n1cc(-c2cc(C(=O)N[C@@H](C)CO)c3nc(N)nn3c2)cn1 (single isomer, unassigned) [Example I-153, 2-Amino-N-[(25)-1-hydroxypropan-2-yl]-6-(1-{1-[6-(trifluoromethyl)pyridin-3-yl]propyl}-1H-pyrazol-4-yl)[1,2,4]triazolo[1,5-a]pyridine-8-carboxamide] | 8.21 | 7.54 |
